Laboratory results taken from patent publication US20240270695A1, “COMPOUNDS, COMPOSITIONS AND METHODS OF TREATING DISORDERS” (Chengdu Anticancer Bioscience LTD, priority 2021, published 2024).
Where two headings read alike, the source gives them in different places.

Test system: RPE-Neo or RPE-MYC or RPE-MYC expressing an EGFP-Histone 2B fusion protein
Assay: Phenotypic screening assay (arrest in mitosis, change in DNA content, cell death; GE IN-Cell Analyzer 2000)
Format: cell-based
Details: Homo sapiens, compounds 20 nM to 20 μM, 24, 48 or 72 hours
[1] = read-out: Min. Effective conc. for Polyploidy (≥10%)
[2] = min. effective conc., read-out: Cell Death (>30%)
[3] = min. effective conc., read-out: Mitotic Arrest (≥10%)

SMILES	minimal effective concentration [1]	minimal effective concentration [2]	minimal effective concentration [3]
COC(=O)C1=C(O)c2ccccc2N(Cc2ccc(C(F)(F)F)cc2)C(=O)C1 [Example 40, Methyl 5-hydroxy-2-oxo-1-(4-(trifluoromethyl)benzyl)-2,3-dihydro-1H-benzo[b]azepine-4-carboxylate]	1 to 10 µM	1 to 10 µM	1 to 10 µM
COC(=O)C1=C(O)c2ccccc2N(Cc2ccc(C)c(F)c2)C(=O)C1 [Example 41, Methyl 1-(3-fluoro-4-methylbenzyl)-5-hydroxy-2-oxo-2,3-dihydro-1H-benzo[b]azepine-4-carboxylate]	0.001 to 1 µM	0.001 to 1 µM	0.001 to 1 µM
COC(=O)C1=C(O)c2ccccc2N(Cc2ccc(C)c(Cl)c2)C(=O)C1 [Example 45, Methyl 1-(3-chloro-4-methylbenzyl)-5-hydroxy-2-oxo-2,3-dihydro-1H-benzo[b]azepine-4-carboxylate]	1 to 10 µM	1 to 10 µM	1 to 10 µM
COC(=O)C1=C(O)c2ccccc2N(Cc2ccc(C)c(Br)c2)C(=O)C1 [Example 46, Methyl 1-(3-bromo-4-methylbenzyl)-5-hydroxy-2-oxo-2,3-dihydro-1H-benzo[b]azepine-4-carboxylate]	1 to 10 µM	1 to 10 µM	1 to 10 µM
COC(=O)C1=C(O)c2ccccc2N(Cc2ccc(OC)c(F)c2)C(=O)C1 [Example 48, Methyl 1-(3-fluoro-4-methoxybenzyl)-5-hydroxy-2-oxo-2,3-dihydro-1H-benzo[b]azepine-4-carboxylate]	0.001 to 1 µM	0.001 to 1 µM	0.001 to 1 µM
CCCc1ccc(CN2C(=O)CC(C(=O)OC)=C(O)c3ccccc32)cc1 [Example 49, Methyl 5-hydroxy-2-oxo-1-(4-propylbenzyl)-2,3-dihydro-1H-benzo[b]azepine-4-carboxylate]	10 to 30 µM	10 to 30 µM	10 to 30 µM
CCCCc1ccc(CN2C(=O)CC(C(=O)OC)=C(O)c3ccccc32)cc1 [Example 50, Methyl 1-(4-butylbenzyl)-5-hydroxy-2-oxo-2,3-dihydro-1H-benzo[b]azepine-4-carboxylate]	10 to 30 µM	10 to 30 µM	10 to 30 µM
COC(=O)C1=C(O)c2ccccc2N(Cc2ccc(OC)c(OC)c2)C(=O)C1 [Example 51, Methyl 1-(3,4-dimethoxybenzyl)-5-hydroxy-2-oxo-2,3-dihydro-1H-benzo[b]azepine-4-carboxylate]	30 to 1000 µM	30 to 1000 µM	30 to 1000 µM
COC(=O)C1=C(O)c2cc(F)ccc2N(Cc2ccc(C)c(F)c2)C(=O)C1 [Example 52, Methyl 7-fluoro-1-(3-fluoro-4-methylbenzyl)-5-hydroxy-2-oxo-2,3-dihydro-1H-benzo[b]azepine-4-carboxylate]	0.001 to 1 µM	0.001 to 1 µM	0.001 to 1 µM
COC(=O)C1=C(O)c2cnccc2N(Cc2ccc(C)c(F)c2)C(=O)C1 [Example 53, Methyl 1-(3-fluoro-4-methylbenzyl)-5-hydroxy-2-oxo-2,3-dihydro-1H-pyrido[4,3-b] azepine-4-carboxylate]	1 to 10 µM	1 to 10 µM	1 to 10 µM
COC(=O)C1=C(O)c2cc(OC)c(OC)cc2N(Cc2ccc(C)c(F)c2)C(=O)C1 [Example 54, Methyl 1-(3-fluoro-4-methylbenzyl)-5-hydroxy-7,8-dimethoxy-2-oxo-2,3-dihydro-1H-benzo[b]azepine-4-carboxylate]	0.001 to 1 µM	0.001 to 1 µM	0.001 to 1 µM
CCC(=O)C1=C(O)c2ccccc2N(Cc2ccc(C)c(F)c2)C(=O)C1 [Example 55, 1-(3-fluoro-4-methylbenzyl)-5-hydroxy-4-propionyl-1,3-dihydro-2H-benzo[b]azepin-2-one]	0.001 to 1 µM	–	0.001 to 1 µM
CC(=O)C1=C(O)c2ccccc2N(Cc2ccc(C)c(F)c2)C(=O)C1 [Example 56, 4-acetyl-1-(3-fluoro-4-methylbenzyl)-5-hydroxy-1,3-dihydro-2H-benzo[b]azepin-2-one]	1 to 10 µM	–	1 to 10 µM
CCCC(=O)C1=C(O)c2ccccc2N(Cc2ccc(C)c(F)c2)C(=O)C1 [Example 57, 4-butyryl-1-(3-fluoro-4-methylbenzyl)-5-hydroxy-1,3-dihydro-2H-benzo[b]azepin-2-one]	1 to 10 µM	1 to 10 µM	0.001 to 1 µM
Cc1ccc(CN2C(=O)CC(C(=O)C3CC3)=C(O)c3ccccc32)cc1F [Example 58, 4-(cyclopropanecarbonyl)-1-(3-fluoro-4-methylbenzyl)-5-hydroxy-1,3-dihydro-2H-benzo[b]azepin-2-one]	0.001 to 1 µM	0.001 to 1 µM	0.001 to 1 µM
Cc1ccc(CN2C(=O)CC(C(=O)C(C)C)=C(O)c3ccccc32)cc1F [Example 59, 1-(3-fluoro-4-methylbenzyl)-5-hydroxy-4-isobutyryl-1,3-dihydro-2H-benzo[b]azepin-2-one]	0.001 to 1 µM	0.001 to 1 µM	0.001 to 1 µM
Cc1ccc(CN2C(=O)CC(C(=O)C(C)(C)C)=C(O)c3ccccc32)cc1F [Example 60, 1-(3-fluoro-4-methylbenzyl)-5-hydroxy-4-pivaloyl-1,3-dihydro-2H-benzo[b]azepin-2-one]	1 to 10 µM	1 to 10 µM	1 to 10 µM
Cc1ccc(CN2C(=O)CC(C(=O)C3CCCO3)=C(O)c3ccccc32)cc1F (stereo not shown) [Example 62, 1-(3-fluoro-4-methylbenzyl)-5-hydroxy-4-(tetrahydrofuran-2-carbonyl)-1,3-dihydro-2H-benzo[b]azepin-2-one]	1 to 10 µM	1 to 10 µM	1 to 10 µM
CNC(=O)C1=C(O)c2ccccc2N(Cc2ccc(C)c(F)c2)C(=O)C1 [Example 63, 1-(3-fluoro-4-methylbenzyl)-5-hydroxy-N-methyl-2-oxo-2,3-dihydro-1H-benzo[b]azepine-4-carboxamide]	1 to 10 µM	1 to 10 µM	1 to 10 µM
CCNC(=O)C1=C(O)c2ccccc2N(Cc2ccc(C)c(F)c2)C(=O)C1 [Example 64, N-ethyl-1-(3-fluoro-4-methylbenzyl)-5-hydroxy-2-oxo-2,3-dihydro-1H-benzo[b]azepine-4-carboxamide]	1 to 10 µM	1 to 10 µM	1 to 10 µM
Cc1ccc(CN2C(=O)CC(C(=O)NC(C)C)=C(O)c3ccccc32)cc1F [Example 65, 1-(3-fluoro-4-methylbenzyl)-5-hydroxy-N-isopropyl-2-oxo-2,3-dihydro-1H-benzo[b]azepine-4-carboxamide]	1 to 10 µM	1 to 10 µM	1 to 10 µM
